Results from patent US20160067221A1, “USE OF ERGOTHIONEINE FOR INDUCING ACTIVITY OF NRF2 IN CELL” (China Medical University, priority 2014, published 2016).

Assays:
Type in all cases: cell-based, human
[1] = tested on: UVA-irradiated HaCaT cells; assay: TUNEL assay (UVA-induced apoptosis); conditions: 500 nM 24 hours prior to UVA 15 J/cm^2, vs UVA alone
Procedure: The apoptosis can induce DNA double-strand breaks to generate a DNA fragment, To examine the effect of the ergothioneine on the UVA-induced apoptosis, an apoptotic cell death is measured using a terminal deoxyucleotidyl transferase-meditated dUTP-fluorescein nick end-labeking (TUNEL) assay, and protein expressions of apoptosis-related proteins, Caspase-3, Caspase-9, Bax and Bcl-2, are measured using a Western blot analysis. Therefore, the aforementioned methods in this example can analyze whether pretreating with the ergothioneine improves the UVA-induced apoptosis. A chromosome breakage represents an initial stage of a […]. The TUNEL assay is based on a presence of nicks in the DNA which can be identified by terminal deoxynucleotidyl transferase (TdT) at 3′ OH ends, ad the 3′ OH ends bind to dUTPs that are secondarily labeled with a fluorescent marker. After a coloration, the cells suffered the apoptosis can be identified. The HaCaT cells are incubated with or without the ergothioneine for 24 hours, wherein the concentration of the ergothioneine is 500 nM. After incubation, the HaCaT cells are exposed to the UVA (15 J/cm^2), and then cultured for 4 hours, Then, the HaCaT cells are incubated with TUNEL reaction buffer. The stained cells are visualized using the fluorescence microscope and photographed. […] FIG. 5-(B) is the quantitative diagram of the TUNEL assay.

HaCaT cells = assay: Comet assay (DNA damage); conditions: for Toxicity Scale 0 (comets in class 0) / Toxicity Scale 1 (comets in class 1) / Toxicity Scale 2 (comets in class 2) / Toxicity Scale 3 (comets in class 3) / Toxicity Scale 4 (comets in class 4): per 100 comets
Excerpt: The exposure of the UVA can cause a DNA damage. To examine the effect of the ergothioneine on the UVA-induced DNA damage, we use a comet assay to analyze the DNA damage. The comet assay involves an encapsulation of the cells in a low-melting-point agarose suspension, the cells lysis in alkaline (pH>13) conditions, a short-term electrophoresis of the suspended lysed cells, and a stained DNA of an electrophoretic stripe using the fluorescent dye. The term “comet” refers to a pattern of a DNA migration through the electrophoresis gel, wherein the DNA migration is caused by a DNA cleavage fragment of the damaged cell released from its nucleus, and the DNA cleavage fragment moves faster than the nucleus of a non-damaged cell in an electric field and results in structure resembling the comet. […] Then, the HaCaT cells are performed the comet assay and stained by red fluorescent dye. The pattern of the nucleus of the damaged cell resembles the comet in the comet assay, which is caused by the DNA cleavage fragment of the damaged cell. In contrast, the pattern of the nucleus of the normal cell, which has non-DNA cleavage fragment, is spherical in the comet assay. […] In FIG. 4 and Table 1, the UVA irradiation (15 J/cm^2) for 4 hours triggers the DNA breakage of the nucleus shown as the tail. The overall score of the group treated with the UVA irradiation alone is 356.3±2.1. […] Therefore, the ergothioneine can inhibit the DNA damage and has a protective property.

[2] = tested on: UVA-irradiated HaCaT cells; assay: Total glutathione (GSH) content, DTNB method; conditions: 125-500 nM 24 hours prior to 15 J/cm^2 UVA, 4 hours; dose-dependent
Excerpt: A glutathione (GSH), the antioxidant in animal cells, can protect DNA against external oxidative stresses. Given that the ergothioneine treatment to the HaCaT cells can reduce the DNA damage of the HaCaT cells; this example next investigates the UVA-induced oxidative damage by determining a total GSH content of the HaCaT cells treated with the ergothioneine or the UVA irradiation. A glutathione disulfide (GSSG) is an oxidized form of the GSH, and the GSSG can be reduced to the GSH by a glutathione reductase. Antioxidant enzymes, such as glutathione peroxidases and peroxiredoxins, generate glutathione disulfide during the reduction of peroxides such as hydrogen peroxide (H2O2) and organic hydroperoxides (ROOH). The GSH generates a yellow-colored 5-thio-2-nitrobenzoic acid (TNB) and a […] GSTNB (between GSH and TNB) during the reaction of 5,5′-dithiobis-(2-nitrobenzoic acid) (DTNB), wherein the content of (GSSG+GSH) is the rate determining factor of color production in aforementioned reactions. The rate of the yellow-colored TNB production is directly proportional to the concentration of (GSSG+GSH) in a sample. Thus, measurement of the absorbance of the TNB provides an accurate estimation of the amount of total glutathione (GSSG+GSH) in the sample. […] The net absorbance at 405 nm yields an accurate amount of the total glutathione in the sample.

Structure (SMILES): C[N+](C)(C)[C@@H](Cc1c[nH]c(=S)[nH]1)C(=O)[O-] [ergothioneine, 2-mercapto histidine trimethylbetain]
- amount of TUNEL fluorescence (apoptosis) [1]: enormously reduced
- Total Damage (overall comet score, 0-400) (HaCaT cells; 250 nM + 15 J/cm^2 UVA): 144 ± 10
- Toxicity Scale 0 (comets in class 0) (HaCaT cells; 250 nM + 15 J/cm^2 UVA): 20 ± 1
- Toxicity Scale 1 (comets in class 1) (HaCaT cells; 250 nM + 15 J/cm^2 UVA): 27 ± 6
- Toxicity Scale 2 (comets in class 2) (HaCaT cells; 250 nM + 15 J/cm^2 UVA): 52 ± 9
- Toxicity Scale 3 (comets in class 3) (HaCaT cells; 250 nM + 15 J/cm^2 UVA): 0 ± 0
- Toxicity Scale 4 (comets in class 4) (HaCaT cells; 250 nM + 15 J/cm^2 UVA): 0 ± 0
- Total Damage (overall comet score, 0-400) (HaCaT cells; 250 nM, no UVA): 14 ± 4
- Toxicity Scale 0 (comets in class 0) (HaCaT cells; 250 nM, no UVA): 88 ± 4
- Toxicity Scale 1 (comets in class 1) (HaCaT cells; 250 nM, no UVA): 10 ± 4
- Toxicity Scale 2 (comets in class 2) (HaCaT cells; 250 nM, no UVA): 2 ± 2
- Toxicity Scale 3 (comets in class 3) (HaCaT cells; 250 nM, no UVA): 0 ± 0
- Toxicity Scale 4 (comets in class 4) (HaCaT cells; 250 nM, no UVA): 0 ± 0
- Total Damage (overall comet score, 0-400) (HaCaT cells; 500 nM + 15 J/cm^2 UVA): 59.0±7.0
- Total Damage (overall comet score, 0-400) (HaCaT cells; 500 nM + 15 J/cm^2 UVA, listed as EGT): 59 ± 7
- Toxicity Scale 0 (comets in class 0) (HaCaT cells; 500 nM + 15 J/cm^2 UVA): 49 ± 7
- Toxicity Scale 1 (comets in class 1) (HaCaT cells; 500 nM + 15 J/cm^2 UVA): 43 ± 8
- Toxicity Scale 2 (comets in class 2) (HaCaT cells; 500 nM + 15 J/cm^2 UVA): 8 ± 1
- Toxicity Scale 3 (comets in class 3) (HaCaT cells; 500 nM + 15 J/cm^2 UVA): 0 ± 0
- Toxicity Scale 4 (comets in class 4) (HaCaT cells; 500 nM + 15 J/cm^2 UVA): 0 ± 0
- Total Damage (overall comet score, 0-400) (HaCaT cells; 500 nM, no UVA): 22 ± 6
- Toxicity Scale 0 (comets in class 0) (HaCaT cells; 500 nM, no UVA): 81 ± 6
- Toxicity Scale 1 (comets in class 1) (HaCaT cells; 500 nM, no UVA): 16 ± 7
- Toxicity Scale 2 (comets in class 2) (HaCaT cells; 500 nM, no UVA): 3 ± 2
- Toxicity Scale 3 (comets in class 3) (HaCaT cells; 500 nM, no UVA): 0 ± 0
- Toxicity Scale 4 (comets in class 4) (HaCaT cells; 500 nM, no UVA): 0 ± 0
- total glutathione level [2]: increased
